Experimental findings from patent US9120749B2, “Quinoline derivatives and MELK inhibitors containing the same” (ONCOTHERAPY SCIENCE, INC., priority 2010, dated 2015) are described below.

By IC50 is commonly meant the concentration at which inhibition is half-maximal.

One assay relates to HT-1197 cells. As to the kind of experiment: Cell-based assay: anti-proliferative activity, Cell Counting Kit-8, 72 hours (HT-1197, negative control without MELK expression). The note with it: HT1197 cells, no MELK expression (negative control), Cell Counting Kit-8 at 72 hours. The method, boiled down:
(§1)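 IC50 values come from CCK-8 growth measurements taken 72 hours post-treatment of plated cells with test compounds. Expression of MELK across the panel was assessed through immunoblot of unfractionated lysates.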

In another assay the test system is A549 cells. As to the kind of experiment: Cell-based assay: anti-proliferative activity, Cell Counting Kit-8, 72 hours (A549). The note with it: MELK-expressing, Cell Counting Kit-8 at 72 hours. In short, it runs like this: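 A549 cells seeded in 96-well plates and exposed to candidate inhibitors for 72 hours. Growth measured with Cell Counting Kit-8; IC50 values calculated from the dose response.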

The subject of a further assay is BT-549 cells. As to the kind of experiment: Cell-based assay: anti-proliferative activity, Cell Counting Kit-8, 72 hours (BT-549). The settings on record: BT549 cells, MELK-expressing, Cell Counting Kit-8 at 72 hours. The method, then: To evaluate the expression status of MELK in several cell lines, western blot analysis was performed using crude cell lysate collected from those cells. Anti-MELK antibody (clone 31, BD Biosciences) was used to visualize the expression.
Active candidate inhibitors against MELK were evaluated for their target-specific cytotoxicity using T47D, A549, BT-549, and HT-1197 cells was used for negative control. 100 micro-L of cell suspension was seeded onto 96-well microtiter plate (ViewPlate-96FTC, PerkinElmer). The initial cell concentration of T47D, A549, BT-549, and HT-1197 were 3,000 cells/well, 2,000 cells/well and 2,500 cells/well, respectively. Cellular growth was determined using Cell Counting Kit-8 (DOJINDO) at 72 hours after the exposure of the candidate inhibitors. […] Accurate IC50 values were calculated as described previously.

Another assay has as its system T47D cells. The assay can be described thus: Cell-based assay: anti-proliferative activity, Cell Counting Kit-8, 72 hours (T47D). The settings on record: MELK-expressing, Cell Counting Kit-8 at 72 hours. The method, boiled down: as §1
For orientation: Formazan colour is commonly taken as a measure of viable cells.

The target in another assay is MELK (Homo sapiens, UniProt Q14680). The assay can be described thus: Kinase assay: MELK activity, phosphorylation of FITC-labeled histone H3 peptide measured by IMAP fluorescence polarization. The assay is classed as biochemical. The note with it: 50 micro-M ATP, FITC-labeled histone H3 peptide substrate, IMAP fluorescence polarization; read-out: IC50 (μM) (kinase assay). In short, it runs like this:
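Substrate is FITC-labeled histone H3 peptide. Compounds come from a 12.5 mM DMSO stock, diluted so assay DMSO is 1%. The stop step adds threefold-volume progressive binding solution, followed by 0.5 h at room temperature and an FP read.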
On the technique in general: In fluorescence polarisation assays a small probe gives low polarisation when free and higher when bound to something large.

Where a name gives a salt, the structure may show the parent alone.

Sequence of MELK (Q14680 whole entry, looked up): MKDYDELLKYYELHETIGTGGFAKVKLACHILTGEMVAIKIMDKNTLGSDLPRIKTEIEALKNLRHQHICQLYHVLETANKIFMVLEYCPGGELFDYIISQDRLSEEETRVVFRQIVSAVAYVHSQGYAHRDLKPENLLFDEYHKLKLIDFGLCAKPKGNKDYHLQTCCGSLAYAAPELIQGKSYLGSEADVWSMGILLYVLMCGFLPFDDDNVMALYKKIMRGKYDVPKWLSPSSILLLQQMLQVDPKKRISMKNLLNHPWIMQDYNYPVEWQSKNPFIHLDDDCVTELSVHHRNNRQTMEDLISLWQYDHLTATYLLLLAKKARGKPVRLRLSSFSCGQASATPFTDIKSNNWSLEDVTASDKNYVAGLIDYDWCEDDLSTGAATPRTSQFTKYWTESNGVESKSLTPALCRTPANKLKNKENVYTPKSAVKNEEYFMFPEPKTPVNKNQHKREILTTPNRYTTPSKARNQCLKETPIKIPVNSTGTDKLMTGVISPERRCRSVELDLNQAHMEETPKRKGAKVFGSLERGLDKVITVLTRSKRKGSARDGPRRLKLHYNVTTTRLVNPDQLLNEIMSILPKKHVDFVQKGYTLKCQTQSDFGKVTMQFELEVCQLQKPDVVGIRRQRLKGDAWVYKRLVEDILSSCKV

In the case of `COc1cc(-c2ccc3ncc(C(=O)C4CC4)c(N[C@H]4CC[C@H](N5CCCC5)CC4)c3c2)cc(Cl)c1O` [Example 343, {6-(3-Chloro-4-hydroxy-5-methoxyphenyl)-4-[trans-4-(pyrrolidin-1-yl)cyclohexylamino]quinolin-3-yl}(cyclopropyl)methanone], the IC50 in the assay on HT-1197 cells (Homo sapiens, HT1197, 72 h) amounted to 3.4 µM; with A549 cells (Homo sapiens, A549, 72 h), 0.2 µM; in the assay on BT-549 cells (Homo sapiens, BT-549, 72 h) it was 0.68 µM; in the assay on T47D cells (Homo sapiens, T47D, 72 h) it was 0.33 µM; on MELK, 0.0021 µM.

For the compound `N[C@H]1CC[C@H](Nc2c(C(=O)C3CC3)cnc3ccc(-c4cn[nH]c4)cc23)CC1` [Example 213, {4-[trans-4-Aminocyclohexylamino]-6-(1H-pyrazol-4-yl)quinolin-3-yl}(cyclopropyl)methanone], the IC50 in the assay with HT-1197 cells (Homo sapiens, HT1197, 72 h) was found to be 14 µM; in the assay on A549 cells (Homo sapiens, A549, 72 h), 5.1 µM; in the assay with BT-549 cells (Homo sapiens, BT-549, 72 h), 1.7 µM; with T47D cells (Homo sapiens, T47D, 72 h), 0.89 µM; at MELK it was 0.067 µM.

As to `CN(C)CC1CCN(c2c(C(=O)C3CC3)cnc3ccc(-c4cc(F)c(O)c(Cl)c4)cc23)CC1` [Example 347, [6-(3-Chloro-5-fluoro-4-hydroxyphenyl)-4-{4-[(dimethylamino)methyl]piperidin-1-yl}quinolin-3-yl](cyclopropyl)methanone], the IC50 amounted to 1.8 µM in the assay with HT-1197 cells (Homo sapiens, HT1197, 72 h); 0.48 µM in the assay with A549 cells (Homo sapiens, A549, 72 h); 0.62 µM in the assay with BT-549 cells (Homo sapiens, BT-549, 72 h); 0.42 µM with T47D cells (Homo sapiens, T47D, 72 h); 0.0024 µM on MELK.

Turning to `CCOc1cc(-c2ccc3ncc(C(=O)C4CC4)c(N4CCC(CN(C)C)CC4)c3c2)ccc1O` [Example 353, Cyclopropyl[4-{4-[(dimethylamino)methyl]piperidin-1-yl}-6-(3-ethoxy-4-hydroxyphenyl)quinolin-3-yl]methanone], the IC50 in the assay on HT-1197 cells (Homo sapiens, HT1197, 72 h) stood at 2.5 µM; in the assay on A549 cells (Homo sapiens, A549, 72 h), 0.68 µM; with BT-549 cells (Homo sapiens, BT-549, 72 h), 1.5 µM; in the assay on T47D cells (Homo sapiens, T47D, 72 h) it was 0.61 µM; at MELK it was 0.0017 µM.

As to `N[C@H]1CC[C@H](Nc2c(C(=O)C3CC3)cnc3ccc(-c4ccncc4)cc23)CC1` [Example 212, {4-[trans-4-Aminocyclohexylamino]-6-(pyridin-4-yl)quinolin-3-yl}(cyclopropyl)methanone], the IC50 in the assay with HT-1197 cells (Homo sapiens, HT1197, 72 h) was 7.2 µM; in the assay with A549 cells (Homo sapiens, A549, 72 h), 0.99 µM; in the assay on BT-549 cells (Homo sapiens, BT-549, 72 h), 2.5 µM; with T47D cells (Homo sapiens, T47D, 72 h), 2.7 µM; at MELK, 0.054 µM.

Consider `CN(C)CC1CCN(c2c(C(=O)C3CC3)cnc3ccc(-c4ccc(O)c(Cl)c4)cc23)CC1` [Example 279, [6-(3-Chloro-4-hydroxyphenyl)-4-{4-[(dimethylamino)methyl]piperidin-1-yl}quinolin-3-yl](cyclopropyl)methanone], for which the IC50 in the assay with HT-1197 cells (Homo sapiens, HT1197, 72 h) turned out to be 6.7 µM; with A549 cells (Homo sapiens, A549, 72 h), 0.3 µM; in the assay on BT-549 cells (Homo sapiens, BT-549, 72 h), 0.86 µM; in the assay on T47D cells (Homo sapiens, T47D, 72 h) it was 0.21 µM; on MELK, 0.0046 µM.

For `COc1cc(-c2ccc3ncc(C(=O)C4CC4)c(N4CCC(CN(C)C)CC4)c3c2)cc(Cl)c1O` [Example 276, [6-(3-Chloro-4-hydroxy-5-methoxyphenyl)-4-{4-[(dimethylamino)methyl]piperidin-1-yl}quinolin-3-yl](cyclopropyl)methanone], the IC50 with HT-1197 cells (Homo sapiens, HT1197, 72 h) amounted to 1.8 µM; in the assay on A549 cells (Homo sapiens, A549, 72 h), 0.21 µM; with BT-549 cells (Homo sapiens, BT-549, 72 h), 0.58 µM; with T47D cells (Homo sapiens, T47D, 72 h) it was 0.16 µM; at MELK it was 0.0008 µM.

Regarding `CCN(CC)[C@H]1CC[C@@H](Nc2c(C(=O)C3CC3)cnc3ccc(-c4cc(Cl)c(O)c(OC)c4)cc23)CC1` [Example 311, {6-(3-Chloro-4-hydroxy-5-methoxyphenyl)-4-[cis-4-(diethylamino)cyclohexylamino]quinolin-3-yl}(cyclopropyl)methanone], the IC50 is 7.6 µM in the assay on HT-1197 cells (Homo sapiens, HT1197, 72 h); 0.21 µM in the assay with A549 cells (Homo sapiens, A549, 72 h); 1.5 µM with BT-549 cells (Homo sapiens, BT-549, 72 h); 0.51 µM in the assay with T47D cells (Homo sapiens, T47D, 72 h); 0.0032 µM at MELK.

As to `COc1cc(-c2ccc3ncc(C(=O)C4CC4)c(N4CCC(C(C)N(C)C)CC4)c3c2)cc(Cl)c1O` (centres unmarked) [Example 250, [6-(3-Chloro-4-hydroxy-5-methoxyphenyl)-4-{4-[1-(dimethylamino)ethyl]piperidin-1-yl}quinolin-3-yl](cyclopropyl)methanone], the 50% inhibitory concentration (IC50) is 1.7 µM in the assay with HT-1197 cells (Homo sapiens, HT1197, 72 h); 0.11 µM in the assay on A549 cells (Homo sapiens, A549, 72 h); 0.61 µM in the assay on BT-549 cells (Homo sapiens, BT-549, 72 h); 0.16 µM in the assay with T47D cells (Homo sapiens, T47D, 72 h); 0.0013 µM at MELK.

Turning to `CCN(CC)C1CCC(Nc2c(C(=O)C3CC3)cnc3ccc(-c4ccc(O)c(Cl)c4)cc23)CC1` (centres unmarked) [Example 192, {6-(3-Chloro-4-hydroxyphenyl)-4-[4-(diethylamino)cyclohexylamino]quinolin-3-yl}(cyclopropyl)methanone], the IC50 was 2.2 µM in the assay on HT-1197 cells (Homo sapiens, HT1197, 72 h); 0.42 µM with A549 cells (Homo sapiens, A549, 72 h); 1.3 µM with BT-549 cells (Homo sapiens, BT-549, 72 h); 0.57 µM in the assay with T47D cells (Homo sapiens, T47D, 72 h); 0.011 µM at MELK.

As for `O=C(c1cnc2ccc(-c3ccc(O)c(Cl)c3)cc2c1N1CCC(CN2CCOCC2)CC1)C1CC1` [Example 332, {6-(3-Chloro-4-hydroxyphenyl)-4-[4-(morpholinomethyl)piperidin-1-yl]quinolin-3-yl}(cyclopropyl)methanone], the IC50 in the assay on HT-1197 cells (Homo sapiens, HT1197, 72 h) was 10 µM; with A549 cells (Homo sapiens, A549, 72 h), 0.55 µM; in the assay with BT-549 cells (Homo sapiens, BT-549, 72 h), 1.5 µM; in the assay on T47D cells (Homo sapiens, T47D, 72 h), 0.67 µM; at MELK it was 0.035 µM.

As for `COc1cc(-c2ccc3ncc(C(=O)C4CC4)c(N[C@H]4CC[C@H](N)CC4)c3c2)ccc1O` [Example 81, {4-[trans-4-Aminocyclohexylamino]-6-(4-hydroxy-3-methoxyphenyl)quinolin-3-yl}(cyclopropyl)methanone], the IC50 was determined as 1.2 µM in the assay on HT-1197 cells (Homo sapiens, HT1197, 72 h); 0.23 µM in the assay with A549 cells (Homo sapiens, A549, 72 h); 0.55 µM in the assay on BT-549 cells (Homo sapiens, BT-549, 72 h); 0.13 µM in the assay with T47D cells (Homo sapiens, T47D, 72 h); 0.007 µM at MELK.

Regarding `CN(C)[C@H]1CC[C@H](Nc2c(C(=O)C3CC3)cnc3cc(F)c(-c4cc(F)c(O)c(F)c4)cc23)CC1` [Example 294, Cyclopropyl{6-(3,5-difluoro-4-hydroxyphenyl)-4-[trans-4-(dimethylamino)cyclohexylamino]-7-fluoroquinolin-3-yl}methanone], the IC50 in the assay with HT-1197 cells (Homo sapiens, HT1197, 72 h) stood at 1.5 µM; in the assay on A549 cells (Homo sapiens, A549, 72 h), 0.43 µM; in the assay on BT-549 cells (Homo sapiens, BT-549, 72 h), 0.55 µM; in the assay on T47D cells (Homo sapiens, T47D, 72 h), 0.68 µM; on MELK, 0.042 µM.

Take `COc1cc(-c2ccc3ncc(C(C)=O)c(N4CCC(CN5CCCC5)CC4)c3c2)cc(Cl)c1O` [Example 321, 1-{6-(3-Chloro-4-hydroxy-5-methoxyphenyl)-4-[4-(pyrrolidin-1-ylmethyl)piperidin-1-yl]quinolin-3-yl}ethanone]: the IC50 was determined as 5.1 µM with HT-1197 cells (Homo sapiens, HT1197, 72 h); 0.18 µM in the assay with A549 cells (Homo sapiens, A549, 72 h); 0.29 µM with BT-549 cells (Homo sapiens, BT-549, 72 h); 0.19 µM in the assay on T47D cells (Homo sapiens, T47D, 72 h); 0.0027 µM at MELK.

`CCN(CC)C1CCC(Nc2c(C(=O)C3CC3)cnc3ccc(-c4cc(Cl)c(O)c(OC)c4)cc23)CC1` (centres unmarked) [Example 185(b), {6-(3-Chloro-4-hydroxy-5-methoxyphenyl)-4-[4-(diethylamino)cyclohexylamino]quinolin-3-yl}(cyclopropyl)methanone dihydrochloride]: the IC50 in the assay with HT-1197 cells (dihydrochloride) is 4.7 µM; with A549 cells (dihydrochloride) it was 0.18 µM; with BT-549 cells (dihydrochloride) it was 1 µM; in the assay on T47D cells (dihydrochloride) it was 0.49 µM.
